Source: EP0768085A1, “ANTIBACTERIAL AGENT” (DAIICHI PHARMACEUTICAL CO., LTD., priority 1994, dated 1996)
≈ marks a conversion by molar mass, not a printed value. Read-outs that look alike come from different tables or passages of the source.

What was measured:
in vivo = details: mouse, oral administration, single dose, suspended in aqueous 0.5% CMC solution, male mice, observed for 14 days
Protocol: Acute toxicity (LD50) of a ketonitrile derivative of the present invention (Compound No. 4) was tested using male mice (Slc:ddY, 5 weeks old). To groups of each 5 mice, the compounds suspended in aqueous 0.5% CMC solution were forcibly dosed orally at a single time so that the final dosages of 707, 1,000, 1,414, and 2,000 mg/kg were attained. […] As a result, LD50 value under conditions of oral administration was estimated to be higher than 2,000 mg/kg. Thus, the compound was confirmed to be quite non-toxic.
To groups of each 5 mice, the compounds suspended in aqueous 0.5% CMC solution were forcibly dosed orally at a single time so that the final dosages of 500, 1,000, 1,500, and 2,000 mg/kg were attained. […] As a result, the LD50 value was estimated to be higher than 2,000 mg/kg. Thus, the compounds were confirmed to be quite non-toxic.

[1] = test system: Staphylococcus aureus 209-P; assay: Antibacterial activity (IC), Mueller-Hinton broth, 96-well microplate (Example 4, Table 39); assay type: cell-based; details: 37°C, 18 hours
Protocol: (§1) A suitable amount of a sample was dissolved in dimethylsulfoxide (DMSO), and the resultant solution was diluted with the same amount of sterilized distilled water to prepare a bulk sample of 1,000 µg/ml. Mueller-Hinton broth (product of DIFCO) was dispensed into each well of 96-well microplate. Thereafter, the bulk specimen was added to the first well of a row, and successively diluted (10-fold each time) with sterilized distilled water. Separately, a bacterial cell suspension for the test (Staphylococcus aureus 209-P) which had been cultured in the above-mentioned broth overnight at 37°C was inoculated to each well so that the final inoculation amount of 10^6 CFU/ml was attained. The final concentrations of the samples were 100, 10, and 1 µg/ml.
(§2) The antibacterial action was evaluated by the inhibitory concentration (hereinafter abbreviated as IC) at which propagation of the bacteria cultured at 37°C for 18 hours was inhibited. Inhibition was determined by the turbidity of the medium. The expressions "IC≤100", "≤10", and "≤1" indicate that MIC-equivalent values obtained at the succesive […] dilution of the sample are 100-10 µg/ml, 10-1 µg/ml, and not more than 1 µg/ml, respectively. […] (In the subsequent Examples, the same rule applies correspondingly.) Table 39

[2] = test system: Staphylococcus aureus TI-1; assay: Antibacterial activity (IC), broth microplate as in Example 4 (Example 5, Table 40); assay type: cell-based; details: TI1, 18 h
Protocol: as §1, §2
In a manner similar to that described in Example 4, antibacterial activity of the invention compound was determined. The bacterium used for the test was Staphylococcus aureus TI-1.

[3] = test system: Pasteurella multocida (Kobe-6); assay: Antibacterial activity (IC), broth microplate as in Example 4 (Example 6, Table 41); assay type: cell-based; details: 18 h, origin pig
Protocol: as §1, §2
In a manner similar to that described in Example 4, antibacterial activity of the invention compound was determined. The bacterium used for the test was Pasteurella Kobe-6 (origin: pig; Pasteurella multocida).

Pasteurella from cattle = assay: MIC by agar plate dilution method (Example 9, Table 44); assay type: cell-based; details: 18 h
Protocol: (§3) Through use of a ketonitrile derivative of the present invention (Compound No. 4) as a sample, minimum inhibitory concentrations (MIC) of Staphylococcus aureus and Pasteurella from cattle were determined by an agar plate dilution method in accordance with the standard procedure authorized by Japan Chemotherapy Association ["Chemotherapy", 29, 76-79, 1981, under the heading "Revised Measurement of Minimum Inhibitory Concentration (MIC)"]. The samples were dissolved in dimethylsulfoxide and diluted with the same amount of sterilized distilled water to prepare a bulk sample liquid of 1,000 µg/ml. The bulk was diluted into a series of 2-fold dilutions using sterilized distilled water.
(§4) Separately, the bacterial cell suspensions for the test shown in Table 18 were cultured in Mueller-Hinton broth (DIFCO) at 37°C for 18-20 hours in advance. They were controlled to have a bacterial amount of 10^6 CFU/ml by use of Mueller-Hinton broth. The thus-controlled liquids were inoculated to a Muller-Hinton agar plate containing the sample, followed by culturing at 37°C for 18 hours. The concentration at which bacterial growth was no longer observed was taken as the MIC.

Staphylococcus aureus = assay: as above; assay type: cell-based; details: 18 h
Protocol: as §3, §4

[4] = test system: various bacterial strains; assay: MIC by microliquid dilution method (Example 10, Table 45); assay type: cell-based
Protocol: Through use of a ketonitrile derivative of the present invention (Compound No. 4) as a sample, minimum inhibitory concentrations (MIC) of respective bacterial strains were determined by a microliquid dilution method in accordance with the standard procedure authorized by Japan Chemotherapy Association ["Chemotherapy", 29, 76-79, 1981, under the heading "Revised Measurement of Minimum Inhibitory Concentration (MIC)"]. The samples were dissolved in dimethylsulfoxide and diluted with the same amount of sterilized distilled water to prepare a bulk sample liquid of 1,000 µg/ml. The bulk sample was cultured in Mueller-Hinton broth at 37°C for 18 hours.

## CC(Oc1ccc(Oc2ncc(C(F)(F)F)cc2Cl)cc1)C(=O)C(C#N)c1ccc(Cl)c(Cl)c1 (stereo not drawn) [Compound No. 4, 4-[4-(3-chloro-5-trifluoromethyl-2-pyridyloxy)phenoxy]-2-(3,4-dichlorophenyl)-3-oxopentanonitrile]
In vivo
  LD50 at 336 h: > 2000 mg/kg
[1]
  MIC: ≤ 1 µg/mL
[2]
  MIC: ≤ 1 µg/mL
[3]
  MIC: 10 to 100 µg/mL (≈ 18.9 to 189 µM)
Pasteurella from cattle; Pasteurella Multosida 1F-17, origin Cattle
  MIC: 1.56 µg/mL (≈ 2.94 µM)
Pasteurella from cattle; Pasteurella haemolytica 1F-15, origin Cattle
  MIC: 6.25 µg/mL (≈ 11.8 µM)
Staphylococcus aureus; 209P, Staphylococcus aureus 209P, origin Standard strain
  MIC: 1.56 µg/mL (≈ 2.94 µM)
Staphylococcus aureus; Staphylococcus aureus 1SS1, origin Chicken
  MIC: 3.13 µg/mL (≈ 5.91 µM)
Staphylococcus aureus; Staphylococcus aureus 3-2, origin Pig
  MIC: 3.13 µg/mL (≈ 5.91 µM)
Staphylococcus aureus; Staphylococcus aureus TI-1, origin Cattle
  MIC: 6.25 µg/mL (≈ 11.8 µM)
[4]; 18 h, Staphylococcus aureus SMITH, read-out: MIC
  MIC: 3.13 µg/mL (≈ 5.91 µM)
[4]; 18 h, Staphylococcus epidermis 56556, read-out: MIC
  MIC: 6.25 µg/mL (≈ 11.8 µM)
[4]; 18 h, Streptococcus mitis 11D 685, read-out: MIC
  MIC: 12.5 µg/mL (≈ 23.6 µM)
[4]; 18 h, Streptococcus pyogenes G-36, read-out: MIC
  MIC: 6.25 µg/mL (≈ 11.8 µM)
[4]; ATCC6633, 18 h, Bacillus subtilis ATCC 6633, read-out: MIC
  MIC: 3.13 µg/mL (≈ 5.91 µM)
[4]; ATCC19433, 18 h, Enterococcus faecalis ATCC 19433, read-out: MIC
  MIC: 6.25 µg/mL (≈ 11.8 µM)
[4]; Staphylococcus aureus M5-1 (Methicillin-resistant Staphylococcus aureus)
  MIC: 3.13 µg/mL (≈ 5.91 µM)
[4]; Staphylococcus aureus M5-2 (Methicillin-resistant Staphylococcus aureus)
  MIC: 3.13 µg/mL (≈ 5.91 µM)
